≈ marks a conversion by molar mass, not a printed value.
Key:
[1] = test system: in vitro grown Mycobacteria (M. tuberculosis); experiment: QUM: Quantification of in vitro grown Mycobacteria (in vitro growth fluorescence assay); format: cell-based; conditions: Mycobacterium tuberculosis; MIC, 80% bacterial growth inhibition; in vitro growth; read-out: QUM
In short: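 Mycobacterium tuberculosis grown in vitro was quantified by fluorescence across compound dose responses. MIC is defined as the minimum concentration producing 80% growth inhibition.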

[2] = test system: M. tuberculosis inside the host macrophage; experiment: QIM: Quantification of Intracellular Mycobacteria (intracellular growth assay, phenotypic cell-based); conditions: Mycobacterium tuberculosis; MIC, 80% bacterial growth inhibition; intracellular growth; read-out: QIM
In short: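 Dose-response testing of intracellular mycobacterial replication in infected macrophages, a cell-based screening format; MIC is defined as the lowest concentration achieving 80% inhibition of bacterial growth.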

CCc1nc2cc(Cl)ccn2c1C(=O)NCc1ccc(Cl)cc1 [Compound 87, 7-Chloro-N-(4-chlorobenzyl)-2-ethylimidazo[1,2-a]pyridine-3-carboxamide]
MIC [1]: < 1 µM
MIC [2]: < 1 µM

CCc1nc2cc(Cl)ccn2c1C(=O)NCc1ccc(O)cc1 [Compound 88, 7-Chloro-2-ethyl-N-(4-hydroxybenzyl)imidazo[1,2-a]pyridine-3-carboxamide]
MIC [1]: 1 to 20 µM (≈ 0.33 to 6.6 µg/mL)
MIC [2]: 1 to 20 µM (≈ 0.33 to 6.6 µg/mL)

CCc1nc2cc(Cl)ccn2c1C(=O)NCc1ccc(N2CCCCC2)cc1 [Compound 90, 7-Chloro-2-ethyl-N-(4-(piperidin-1-yl)benzyl)imidazo[1,2-a]pyridine-3-carboxamide]
MIC [1]: < 1 µM
MIC [2]: < 1 µM

CCc1nc2cc(Cl)ccn2c1C(=O)NCc1ccc2ccccc2c1 [Compound 91, 7-Chloro-2-ethyl-N-(naphthalen-2-ylmethyl)imidazo[1,2-a]pyridine-3-carboxamide]
MIC [1]: < 1 µM
MIC [2]: 1 to 20 µM (≈ 0.364 to 7.28 µg/mL)

CCc1nc2cc(Cl)ccn2c1C(=O)NCc1ccc(C(C)(C)C)cc1 [Compound 92, N-(4-tert-Butylbenzyl)-7-chloro-2-ethylimidazo[1,2-a]pyridine-3-carboxamide]
MIC [1]: < 1 µM
MIC [2]: < 1 µM

CCc1nc2cc(Cl)ccn2c1C(=O)NCc1ccc(-c2ccccc2)cc1 [Compound 93]
MIC [1]: < 1 µM
MIC [2]: < 1 µM

CCc1nc2cc(Cl)ccn2c1C(=O)NCc1ccc(-c2ccccc2Cl)cc1 [Compound 94, 7-Chloro-N-((2′-chlorobiphenyl-4-yl)methyl)-2-ethylimidazo[1,2-a]pyridine-3-carboxamide]
MIC [1]: < 1 µM
MIC [2]: < 1 µM

CCc1nc2cc(Cl)ccn2c1C(=O)NCc1ccc(-c2ccc(Cl)cc2)cc1 [Compound 95, 7-Chloro-N-((4′-chlorobiphenyl-4-yl)methyl)-2-ethylimidazo[1,2-a]pyridine-3-carboxamide]
MIC [1]: < 1 µM
MIC [2]: < 1 µM

CCc1nc2cc(Cl)ccn2c1C(=O)NCc1ccc(-c2ccccc2C)cc1 [Compound 96, 7-Chloro-2-ethyl-N-((2′-methylbiphenyl-4-yl)methyl)imidazo[1,2-a]pyridine-3-carboxamide]
MIC [1]: < 1 µM
MIC [2]: < 1 µM

CCc1nc2cc(Cl)ccn2c1C(=O)NCc1ccc(-c2cccc(C)c2)cc1 [Compound 97, 7-Chloro-2-ethyl-N-((3′-methylbiphenyl-4-yl)methyl)imidazo[1,2-a]pyridine-3-carboxamide]
MIC [1]: < 1 µM
MIC [2]: < 1 µM

CCc1nc2cc(Cl)ccn2c1C(=O)NCc1ccc(-c2ccc(C)cc2)cc1 [Compound 98, 7-Chloro-2-ethyl-N-((4′-methylbiphenyl-4-yl)methyl)imidazo[1,2-a]pyridine-3-carboxamide]
MIC [1]: < 1 µM
MIC [2]: < 1 µM

O=C(NCc1ccc(-c2ccccc2)cc1)c1c(C(F)(F)F)nc2ccc(Cl)cn12 [Compound 99, N-(Biphenyl-4-ylmethyl)-6-chloro-2-(trifluoromethyl)imidazo[1,2-a]pyridine-3-carboxamide]
MIC [1]: < 1 µM
MIC [2]: < 1 µM

CC(C)(C)c1ccc(CNC(=O)c2c(C(F)(F)F)nc3ccc(Cl)cn23)cc1 [Compound 100, N-(4-tert-Butylbenzyl)-6-chloro-2-(trifluoromethyl)imidazo[1,2-a]pyridine-3-carboxamide]
MIC [1]: < 1 µM
MIC [2]: < 1 µM

CCc1nc2cc(Cl)ccn2c1C(=O)NCc1ccc(Br)cc1 [Compound 101, N-(4-Bromobenzyl)-7-chloro-2-ethylimidazo[1,2-a]pyridine-3-carboxamide]
MIC [1]: 1 to 20 µM (≈ 0.393 to 7.85 µg/mL)
MIC [2]: < 1 µM

CCc1nc2cc(Cl)ccn2c1C(=O)NCc1ccc(OC(F)(F)F)cc1 [Compound 102, 7-Chloro-2-ethyl-N-(4-(trifluoromethoxy)benzyl)imidazo[1,2-a]pyridine-3-carboxamide]
MIC [1]: < 1 µM
MIC [2]: 1 to 20 µM (≈ 0.398 to 7.96 µg/mL)

CCc1nc2ccc(F)cn2c1C(=O)NCc1ccc(OC(F)(F)F)cc1 [Compound 103, 2-Ethyl-6-fluoro-N-(4-(trifluoromethoxy)benzyl)imidazo[1,2-a]pyridine-3-carboxamide]
MIC [1]: 1 to 20 µM (≈ 0.381 to 7.63 µg/mL)
MIC [2]: < 1 µM

CCc1nc2cc(OC)ccn2c1C(=O)NCc1ccc(OC(F)(F)F)cc1 [Compound 104, 2-Ethyl-7-methoxy-N-(4-(trifluoromethoxy)benzyl)imidazo[1,2-a]pyridine-3-carboxamide]
MIC [1]: > 20 µM
MIC [2]: 1 to 20 µM (≈ 0.393 to 7.87 µg/mL)

CCc1nc2cc(O)ccn2c1C(=O)NCc1ccc(OC(F)(F)F)cc1 [Compound 105, 2-Ethyl-7-hydroxy-N-(4-(trifluoromethoxy)benzyl)imidazo[1,2-a]pyridine-3-carboxamide]
MIC [1]: > 20 µM
MIC [2]: > 20 µM

CCCNc1ccc(CNC(=O)c2c(CC)nc3cc(Cl)ccn23)cc1 [Compound 106, 7-Chloro-2-ethyl-N-(4-(propylamino)benzyl)imidazo[1,2-a]pyridine-3-carboxamide]
MIC [1]: < 1 µM
MIC [2]: 1 to 20 µM (≈ 0.371 to 7.42 µg/mL)

CCCCCNc1ccc(CNC(=O)c2c(CC)nc3cc(Cl)ccn23)cc1 [Compound 107, 7-Chloro-2-ethyl-N-(4-(pentylamino)benzyl)imidazo[1,2-a]pyridine-3-carboxamide]
MIC [1]: < 1 µM
MIC [2]: < 1 µM

CCc1nc2cc(Cl)ccn2c1C(=O)NCc1ccc(N2CCN(C)CC2)cc1 [Compound 109, 7-Chloro-2-ethyl-N-(4-(4-methylpiperazin-1-yl)benzyl)imidazo[1,2-a]pyridine-3-carboxamide]
MIC [1]: 1 to 20 µM (≈ 0.412 to 8.24 µg/mL)
MIC [2]: 1 to 20 µM (≈ 0.412 to 8.24 µg/mL)

CCc1nc2cc(Cl)ccn2c1C(=O)NCc1ccc(N2CCN(C(C)C)CC2)cc1 [Compound 110, 7-Chloro-2-ethyl-N-(4-(4-isopropylpiperazin-1-yl)benzyl)imidazo[1,2-a]pyridine-3-carboxamide]
MIC [1]: 1 to 20 µM (≈ 0.44 to 8.8 µg/mL)
MIC [2]: < 1 µM

CCc1nc2cc(Cl)ccn2c1C(=O)NCc1ccc(N2CCN(c3ccccc3)CC2)cc1 [Compound 111, 7-Chloro-2-ethyl-N-(4-(4-phenylpiperazin-1-yl)benzyl)imidazo[1,2-a]pyridine-3-carboxamide]
MIC [1]: < 1 µM
MIC [2]: < 1 µM

CCc1nc2ccc(Cl)cn2c1C(=O)NCc1ccc(N2CCN(c3ccc(F)cc3)CC2)cc1 [Compound 113, 6-Chloro-2-ethyl-N-(4-(4-(4-fluorophenyl)piperazin-1-yl)benzyl)imidazo[1,2-a]pyridine-3-carboxamide]
MIC [1]: < 1 µM
MIC [2]: < 1 µM

CCc1nc2cc(Cl)ccn2c1C(=O)NCc1ccc(-c2ccc(F)cc2)cc1 [Compound 116, 7-Chloro-2-ethyl-N-((4′-fluorobiphenyl-4-yl)methyl)imidazo[1,2-a]pyridine-3-carboxamide]
MIC [1]: < 1 µM
MIC [2]: < 1 µM

CCc1nc2cc(Cl)ccn2c1C(=O)NCc1ccc(-c2ccc(C(C)(C)C)cc2)cc1 [Compound 117, N-((4′-tert-Butylbiphenyl-4-yl)methyl)-7-chloro-2-ethylimidazo[1,2-a]pyridine-3-carboxamide]
MIC [1]: < 1 µM
MIC [2]: < 1 µM

CCc1nc2cc(Cl)ccn2c1C(=O)NCc1ccc(-c2ccc(OC)cc2)cc1 [Compound 118, 7-Chloro-2-ethyl-N-((4′-methoxybiphenyl-4-yl)methyl)imidazo[1,2-a]pyridine-3-carboxamide]
MIC [1]: < 1 µM
MIC [2]: < 1 µM

CCc1nc2cc(Cl)ccn2c1C(=O)NCc1ccc(-c2ccc(OC(F)(F)F)cc2)cc1 [Compound 119, 7-Chloro-2-ethyl-N-((4′-(trifluoromethoxy)biphenyl-4-yl)methyl)imidazo[1,2-a]pyridine-3-carboxamide]
MIC [1]: < 1 µM
MIC [2]: < 1 µM

CCc1nc2cc(Cl)ccn2c1C(=O)NCc1ccc(-c2ccc(C(F)(F)F)cc2)cc1 [Compound 120, 7-Chloro-2-ethyl-N-((4′-(trifluoromethyl)biphenyl-4-yl)methyl)imidazo[1,2-a]pyridine-3-carboxamide]
MIC [1]: < 1 µM
MIC [2]: < 1 µM

CCc1nc2ccc(Cl)cn2c1C(=O)NCc1ccc(-c2ccc(C#N)cc2)cc1 [Compound 121, 6-Chloro-N-((4′-cyanobiphenyl-4-yl)methyl)-2-ethylimidazo[1,2-a]pyridine-3-carboxamide]
MIC [1]: < 1 µM
MIC [2]: < 1 µM

CCc1nc2cc(Cl)ccn2c1C(=O)NCc1ccc(-c2ccc(C#N)cc2)cc1 [Compound 122, 7-Chloro-N-((4′-cyanobiphenyl-4-yl)methyl)-2-ethylimidazo[1,2-a]pyridine-3-carboxamide]
MIC [1]: < 1 µM
MIC [2]: < 1 µM

CCc1nc2ccc(Cl)cn2c1C(=O)NCc1ccc(-c2ccccc2C(F)(F)F)cc1 [Compound 123, 6-Chloro-2-ethyl-N-((2′-(trifluoromethyl)biphenyl-4-yl)methyl)imidazo[1,2-a]pyridine-3-carboxamide]
MIC [1]: 1 to 20 µM (≈ 0.458 to 9.16 µg/mL)
MIC [2]: < 1 µM

CCc1nc2cc(Cl)ccn2c1C(=O)NCc1ccc(-c2ccccc2C(F)(F)F)cc1 [Compound 124]
MIC [1]: 1 to 20 µM (≈ 0.458 to 9.16 µg/mL)
MIC [2]: < 1 µM

CCc1nc2ccc(Cl)cn2c1C(=O)NCc1ccc(-c2ccccc2C#N)cc1 [Compound 125, 6-Chloro-N-((2′-cyanobiphenyl-4-yl)methyl)-2-ethylimidazo[1,2-a]pyridine-3-carboxamide]
MIC [1]: < 1 µM
MIC [2]: 1 to 20 µM (≈ 0.415 to 8.3 µg/mL)

CCc1nc2cc(Cl)ccn2c1C(=O)NCc1ccc(-c2ccccc2C#N)cc1 [Compound 126, 7-Chloro-N-((2′-cyanobiphenyl-4-yl)methyl)-2-ethylimidazo[1,2-a]pyridine-3-carboxamide]
MIC [1]: < 1 µM
MIC [2]: 1 to 20 µM (≈ 0.415 to 8.3 µg/mL)

CCc1nc2ccc(Cl)cn2c1C(=O)NCc1ccc(-c2cccc(C#N)c2)cc1 [Compound 127, 6-Chloro-N-((3′-cyanobiphenyl-4-yl)methyl)-2-ethylimidazo[1,2-a]pyridine-3-carboxamide]
MIC [1]: > 20 µM
MIC [2]: < 1 µM

CCc1nc2cc(Cl)ccn2c1C(=O)NCc1ccc(-c2cccc(C#N)c2)cc1 [Compound 128, 7-Chloro-N-((3′-cyanobiphenyl-4-yl)methyl)-2-ethylimidazo[1,2-a]pyridine-3-carboxamide]
MIC [1]: > 20 µM
MIC [2]: < 1 µM
